Results as given in article PMC3594701 (Journal of acquired immune deficiency syndromes (1999), 2011).
Marks after values point to notes of the source that are not given here.

Columns and labels:
[1] = Steady-state plasma pharmacokinetics; format: in vivo, human; details: for Cmax: GM Cmax
[2] = Steady-state intracellular; format: in vivo, human; details: IC (PBMC); for GM AUC: AUC0–12; for Cmax: GM Cmax
[3] = 10 HIV-infected individuals, 6 also on twice-daily darunavir/ritonavir; cited from earlier work
HIV = details: 800 mg once daily versus approved 400 mg twice-daily dose; cited from earlier work
[4] = IC accumulation: ratio of IC drug to drug in plasma; details: human, GM IC to Plasma Ratio
[5] = group 1, period 2 (day 35): raltegravir 400 mg twice daily + darunavir/ritonavir 800/100 mg once daily
[6] = group 1, period 2 (day 35): raltegravir 400 mg twice daily + darunavir/ritonavir 800/100 mg once daily, listed as raltegravir
[7] = group 2, period 2 (day 35): raltegravir 800 mg once daily + darunavir/ritonavir 800/100 mg once daily

SMILES: Cc1nnc(C(=O)NC(C)(C)c2nc(C(=O)NCc3ccc(F)cc3)c(O)c(=O)n2C)o1 [Raltegravir, raltegravir]
- GM Ctrough [1, 5]: 20 ng/mL
- GM Ctrough [1, 6]: 20 (17–25) ng/mL
- GM Ctrough [1, 7]: 11 ^* ng/mL
- Cmax ([1]; human, group 1, period 2 (day 35): raltegravir 400 mg twice daily + darunavir/ritonavir 800/100 mg once daily): 438 ng/mL
- concentration at 12 h ([1]; human, GM Ctrough, group 1, period 1 (day 21): raltegravir 400 mg twice daily, without darunavir/ritonavir): 23 ng/mL
- concentration at 12 h ([1]; human, GM Ctrough, group 2, period 1 (day 21): raltegravir 400 mg twice daily, without darunavir/ritonavir): 28 ng/mL
- Cmax ([1]; human, oral, 400 mg, group 1, period 1 (day 21): raltegravir 400 mg twice daily, without darunavir/ritonavir): 533 ng/mL
- Cmax ([1]; human, oral, 400 mg, group 2, period 1 (day 21): raltegravir 400 mg twice daily, without darunavir/ritonavir): 361 ng/mL
- Cmax ([1]; human, oral, group 2, period 2 (day 35): raltegravir 800 mg once daily + darunavir/ritonavir 800/100 mg once daily): 556 ng/mL
- concentration at 12 h ([1]; human, oral, GM Ctrough, group 1, period 1 (day 21): raltegravir 400 mg twice daily, without darunavir/ritonavir): 23 ng/mL
- concentration at 12 h ([1]; human, oral, GM Ctrough, group 2, period 1 (day 21): raltegravir 400 mg twice daily, without darunavir/ritonavir): 28 ng/mL
- concentration at 24 h ([1]; human, oral, GM Ctrough, group 2, period 2 (day 35): raltegravir 800 mg once daily + darunavir/ritonavir 800/100 mg once daily): 11 ng/mL
- GM AUC ([2]; group 1, period 1 (day 21): raltegravir 400 mg twice daily, without darunavir/ritonavir): 9010 ng/h/mL
- GM AUC ([2]; group 1, period 1 (day 21): raltegravir 400 mg twice daily, without darunavir/ritonavir, listed as raltegravir): 9010 (7852–13,519) ng·h^−1·mL^−1
- GM Ctrough [2, 5]: 105 ng/mL
- GM Ctrough [2, 6]: 105 (51–295) ng/mL
- GM AUC ([2]; group 2, period 1 (day 21): raltegravir 400 mg twice daily, without darunavir/ritonavir): 8780 ng/h/mL
- GM AUC ([2]; group 2, period 1 (day 21): raltegravir 400 mg twice daily, without darunavir/ritonavir, listed as raltegravir): 8780 (7286–16,400) ng·h^−1·mL^−1
- GM Ctrough [2, 7]: 22 ng/mL
- Cmax ([2]; human, PBMC (intracellular), oral, 400 mg, group 2, period 1 (day 21): raltegravir 400 mg twice daily, without darunavir/ritonavir): 1870 ng/mL
- Cmax ([2]; human, PBMC, 400 mg, group 1, period 1 (day 21): raltegravir 400 mg twice daily, without darunavir/ritonavir): 2310 ng/mL
- concentration at 12 h ([2]; human, PBMC, GM Ctrough, group 1, period 1 (day 21): raltegravir 400 mg twice daily, without darunavir/ritonavir): 101 ng/mL
- concentration at 12 h ([2]; human, PBMC, GM Ctrough, group 2, period 1 (day 21): raltegravir 400 mg twice daily, without darunavir/ritonavir): 115 ng/mL
- Cmax ([2]; human, PBMC, oral, 400 mg, group 1, period 1 (day 21): raltegravir 400 mg twice daily, without darunavir/ritonavir): 2310 ng/mL
- Cmax ([2]; human, PBMC, oral, group 1, period 2 (day 35): raltegravir 400 mg twice daily + darunavir/ritonavir 800/100 mg once daily): 2170 ng/mL
- Cmax ([2]; human, PBMC, oral, group 2, period 2 (day 35): raltegravir 800 mg once daily + darunavir/ritonavir 800/100 mg once daily): 2820 ng/mL
- concentration at 12 h ([2]; human, PBMC, oral, GM Ctrough, group 1, period 1 (day 21): raltegravir 400 mg twice daily, without darunavir/ritonavir): 101 ng/mL
- concentration at 12 h ([2]; human, PBMC, oral, GM Ctrough, group 2, period 1 (day 21): raltegravir 400 mg twice daily, without darunavir/ritonavir): 115 ng/mL
- concentration at 24 h ([2]; human, PBMC, oral, GM Ctrough, group 2, period 2 (day 35): raltegravir 800 mg once daily + darunavir/ritonavir 800/100 mg once daily): 22 ng/mL
- decrease of plasma AUC [3]: 33%
- virological response (HIV): did not show the same virological response
- Kp ([4]; PBMC (intracellular)/plasma, oral, 400 mg, AUC, group 1, period 1 (day 21): raltegravir 400 mg twice daily, without darunavir/ritonavir): 4.9
- Kp ([4]; PBMC (intracellular)/plasma, oral, 400 mg, AUC, group 2, period 1 (day 21): raltegravir 400 mg twice daily, without darunavir/ritonavir): 5.6
- Kp ([4]; PBMC (intracellular)/plasma, oral, 400 mg, Cmax, group 1, period 1 (day 21): raltegravir 400 mg twice daily, without darunavir/ritonavir): 4.6
- Kp ([4]; PBMC (intracellular)/plasma, oral, 400 mg, Cmax, group 2, period 1 (day 21): raltegravir 400 mg twice daily, without darunavir/ritonavir): 5.5
- Kp ([4]; PBMC (intracellular)/plasma, oral, 400 mg, Ctrough, group 1, period 1 (day 21): raltegravir 400 mg twice daily, without darunavir/ritonavir): 5.1
- Kp ([4]; PBMC (intracellular)/plasma, oral, 400 mg, Ctrough, group 2, period 1 (day 21): raltegravir 400 mg twice daily, without darunavir/ritonavir): 4.6
- Kp ([4]; intracellular (PBMC) / plasma, AUC (raltegravir), group 1, period 2 (day 35): raltegravir 400 mg twice daily + darunavir/ritonavir 800/100 mg once daily): 5.8
- Kp ([4]; intracellular (PBMC) / plasma, AUC (raltegravir), group 2, period 2 (day 35): raltegravir 800 mg once daily + darunavir/ritonavir 800/100 mg once daily): 6
- Kp ([4]; intracellular (PBMC) / plasma, oral, Cmax, group 1, period 2 (day 35): raltegravir 400 mg twice daily + darunavir/ritonavir 800/100 mg once daily): 5.6
- Kp ([4]; intracellular (PBMC) / plasma, oral, Cmax, group 2, period 2 (day 35): raltegravir 800 mg once daily + darunavir/ritonavir 800/100 mg once daily): 6.8
- Kp ([4]; intracellular (PBMC) / plasma, oral, Ctrough, group 1, period 2 (day 35): raltegravir 400 mg twice daily + darunavir/ritonavir 800/100 mg once daily): 4.5
- Kp at 24 h ([4]; intracellular (PBMC) / plasma, oral, Ctrough, group 2, period 2 (day 35): raltegravir 800 mg once daily + darunavir/ritonavir 800/100 mg once daily): 2.4
